Counter-ions that a name gives are not always drawn. Like-named read-outs stand apart in the source and are kept apart here.

The record followed here is US10100019B2.

One data set deals with H3122 cells. Kind of data set: Cytotoxicity in non-small cell lung cancer cell line H3122 (SRB). The data set is classed as cell-based, human. Conditions: H3122 cells, three days, SRB. Here is the method: Particularly, 4,000 H3122 cells containing ALK enzyme were distributed in each well of a 96 well plate together with 100 μl of DMEM (Dulbecco's Modified Eagle's Medium). One day later, the compound of the present invention was added to each well at different concentrations of […]. DMSO (dimethylsulfoxide) was added to the well that was not loaded with the compound by the same amount as the compound. Three days after the addition of the compound, DMEM was eliminated. 10% TCA (trichloroacetic acid) was added to fix the cells. The wells were washed with running water three times and the live cells were stained with SRB solution (1 sulphorodamine B). Then, OD was measured to calculate the population of the live cells.

For the next data set, the system named is H2228 cells. Kind of data set: cells. The following applies: Homo sapiens, NCI-H2228, 72 h, read-out: Cytotoxicity H2228 (GI50 μM), H2228 cells, three days, SRB.
For another data set, the system named is Ba/F3 EML4-ALK WT cells. Kind of data set: cells. The following applies: read-out: Ba/F3 EML-ALK WT (IC50 μM). Format: cell-based, rodent.
A further data set has as its target ALK WT (Homo sapiens (Human), UniProt Q9UM73). Conditions: read-out: ALK WT (IC50 μM); ALK enzyme, HTRF. (In general: In TR-FRET formats the signal depends on donor and acceptor labels being close together.)

Chain of ALK WT (Q9UM73 19-1620): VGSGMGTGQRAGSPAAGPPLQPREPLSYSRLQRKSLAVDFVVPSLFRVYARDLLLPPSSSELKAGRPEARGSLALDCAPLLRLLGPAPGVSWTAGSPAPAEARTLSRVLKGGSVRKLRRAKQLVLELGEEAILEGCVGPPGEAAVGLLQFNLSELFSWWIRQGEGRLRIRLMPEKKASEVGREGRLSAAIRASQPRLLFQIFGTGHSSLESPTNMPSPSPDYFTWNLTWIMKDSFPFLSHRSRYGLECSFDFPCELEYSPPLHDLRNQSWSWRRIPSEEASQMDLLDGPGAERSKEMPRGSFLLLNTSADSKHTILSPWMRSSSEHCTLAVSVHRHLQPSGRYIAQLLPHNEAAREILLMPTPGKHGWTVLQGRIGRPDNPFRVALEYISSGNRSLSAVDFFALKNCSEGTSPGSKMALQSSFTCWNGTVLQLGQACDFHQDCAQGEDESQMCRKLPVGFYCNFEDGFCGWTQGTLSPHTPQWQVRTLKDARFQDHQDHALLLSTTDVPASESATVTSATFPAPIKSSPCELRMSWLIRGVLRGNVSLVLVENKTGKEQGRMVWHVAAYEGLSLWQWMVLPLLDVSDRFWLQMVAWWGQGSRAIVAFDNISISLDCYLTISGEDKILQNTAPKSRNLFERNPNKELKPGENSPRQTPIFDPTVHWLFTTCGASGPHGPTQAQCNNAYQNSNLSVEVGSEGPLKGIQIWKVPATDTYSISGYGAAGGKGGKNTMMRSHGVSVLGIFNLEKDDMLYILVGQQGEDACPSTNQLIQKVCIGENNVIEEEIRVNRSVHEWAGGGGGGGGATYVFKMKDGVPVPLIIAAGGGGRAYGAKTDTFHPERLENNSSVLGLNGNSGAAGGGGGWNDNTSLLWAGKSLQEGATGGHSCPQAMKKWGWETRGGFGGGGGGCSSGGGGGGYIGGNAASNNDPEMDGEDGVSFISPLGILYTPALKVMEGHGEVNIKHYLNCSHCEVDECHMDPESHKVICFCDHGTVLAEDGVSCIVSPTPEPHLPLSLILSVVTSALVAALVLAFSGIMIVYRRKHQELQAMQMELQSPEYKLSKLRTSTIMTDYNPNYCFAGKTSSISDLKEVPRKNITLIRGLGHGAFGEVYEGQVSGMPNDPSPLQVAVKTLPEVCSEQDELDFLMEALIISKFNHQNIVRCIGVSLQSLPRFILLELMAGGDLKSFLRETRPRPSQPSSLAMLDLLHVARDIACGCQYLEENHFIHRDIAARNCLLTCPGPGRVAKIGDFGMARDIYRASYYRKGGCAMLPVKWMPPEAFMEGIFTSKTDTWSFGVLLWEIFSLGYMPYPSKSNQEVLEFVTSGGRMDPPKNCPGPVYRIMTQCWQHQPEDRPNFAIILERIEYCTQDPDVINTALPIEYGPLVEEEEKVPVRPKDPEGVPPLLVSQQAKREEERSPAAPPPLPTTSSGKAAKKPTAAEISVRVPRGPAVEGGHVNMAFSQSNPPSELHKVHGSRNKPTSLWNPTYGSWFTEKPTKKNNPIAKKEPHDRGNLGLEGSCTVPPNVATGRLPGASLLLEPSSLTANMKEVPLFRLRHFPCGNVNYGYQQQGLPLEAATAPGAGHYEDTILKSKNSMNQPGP

As a reminder, the GI50 is the concentration at which growth is held to half of that of the control. Consider `COc1ccc(CCN)cc1Nc1ncc(Cl)c(Nc2c(F)cccc2S(=O)(=O)C(C)C)n1` [Example 34, N2-(5-(2-aminoethyl)-2-methoxyphenyl)-5-chloro-N4-(2-fluoro-6-(isopropylsulfonyl)phenyl)pyrimidine-2,4-diaminehydrochloride], for which the 50% growth inhibitory concentration (GI50) came out at 2.2 µM with H3122 cells (Homo sapiens, NCI-H3122, 72 h) and 2.3 µM with H2228 cells.

Consider `COc1ccc(C(C)(C)CN)cc1Nc1ncc(Cl)c(Nc2ccccc2S(=O)(=O)C(C)C)n1` [Example 35, N2-(5-(1-amino-2-methylpropane-2-yl)-2-methoxyphenyl)-5-chloro-N4-(2-(isopropylsulfonyl)phenyl)pyrimidine-2,4-diamine], for which the GI50 with H3122 cells (Homo sapiens, NCI-H3122, 72 h) stood at 1.6 µM; in the data set with H2228 cells it was 1.6 µM.

Take `COc1ccc(C(C)(C)CN)cc1Nc1ncc(Cl)c(Nc2ccc(F)cc2S(=O)(=O)C(C)C)n1` [Example 36, N2-(5-(1-amino-2-methylpropane-2-yl)-2-methoxyphenyl)-5-chloro-N4-(4-fluoro-2-(isopropylsulfonyl)phenyl)pyrimidine-2,4-diamine]: the GI50 with H3122 cells and with H2228 cells was 10 µM in each case.

For the compound `COc1ccc(C(C)(C)CN)cc1Nc1ncc(Cl)c(Nc2cc(F)ccc2S(=O)(=O)C(C)C)n1` [Example 37, N2-(5-(1-amino-2-methylpropane-2-yl)-2-methoxyphenyl)-5-chloro-N4-(5-fluoro-2-(isopropylsulfonyl)phenyl)pyrimidine-2,4-diamine], the 50% growth inhibitory concentration (GI50) in the data set on H3122 cells and in the data set with H2228 cells was 10 µM in each case.

For `COc1ccc(C(C)(C)CN)cc1Nc1ncc(Cl)c(Nc2c(F)cccc2S(=O)(=O)C(C)C)n1` [Example 38, N2-(5-(1-amino-2-methylpropane-2-yl)-2-methoxyphenyl)-5-chloro-N4-(2-fluoro-6-(isopropylsulfonyl)phenyl)pyrimidine-2,4-diamine], the GI50 in the data set on H3122 cells and in the data set with H2228 cells was 10 µM throughout.

`COc1cc(CC#N)c(C)cc1Nc1ncc(Cl)c(Nc2ccccc2S(=O)(=O)C(C)C)n1` [Example 53, 2-(4-((5-chloro-4-((2-(isopropylsulfonyl)phenyl)amino)pyrimidine-2-yl)amino)-5-methoxy-2-methylphenyl)acetonitrile]: the GI50 with H3122 cells (Homo sapiens, NCI-H3122, 72 h) is 0.074 µM. Further, the IC50 with Ba/F3 EML4-ALK WT cells (Ba/F3 EML4-ALK) was at most 0.1 µM; in the data set on Ba/F3 EML4-ALK WT cells, 0.061 µM.

Compound `COc1cc(C(C)(C)C#N)c(C)cc1Nc1ncc(Cl)c(Nc2ccccc2S(=O)(=O)C(C)C)n1` [Example 54, 2-(4-((5-chloro-4-((2-(isopropylsulfonyl)phenyl)amino)pyrimidine-2-yl)amino)-5-methoxy-2-methylphenyl)-2-methylpropanenitrile] came in with a GI50 in the data set with H3122 cells (Homo sapiens, NCI-H3122, 72 h) of 0.25 µM. Also, the IC50 in the data set on Ba/F3 EML4-ALK WT cells (Ba/F3 EML4-ALK) was 0.25 µM.

`COc1cc(CCN)c(C)cc1Nc1ncc(Cl)c(Nc2ccccc2S(=O)(=O)C(C)C)n1` [Example 55, N2-(4-(2-aminoethyl)-2-methoxy-5-methylphenyl)-5-chloro-N4-(2-(isopropylsulfonyl)phenyl)pyrimidine-2,4-diamine] gave a 50% growth inhibitory concentration (GI50) with H3122 cells (Homo sapiens, NCI-H3122, 72 h) of 0.06 µM. In addition, the IC50 on ALK WT is 0.0027 µM.

As for `COc1cc(C(C)(C)CN)c(C)cc1Nc1ncc(Cl)c(Nc2ccccc2S(=O)(=O)C(C)C)n1` [Example 56, N2-(4-(1-amino-2-methylpropane-2-yl)-2-methoxy-5-methylphenyl)-5-chloro-N4-(2-(isopropylsulfonyl)phenyl)pyrimidine-2,4-diamine], in the data set with H3122 cells (Homo sapiens, NCI-H3122, 72 h), it took 0.053 µM to inhibit growth by half (GI50). In addition, the IC50 at ALK WT was 0.0049 µM.

As to `COc1cc(C(C)(C)CNC=O)c(C)cc1Nc1ncc(Cl)c(Nc2ccccc2S(=O)(=O)C(C)C)n1` [Example 59, N-(2-(4-((5-chloro-4-((2-(isopropylsulfonyl)phenyl)amino)pyrimidine-2-yl)amino)-5-methoxy-2-methylphenyl)-2-methylpropyl)formamide], it took 0.063 µM to inhibit growth with H3122 cells (Homo sapiens, NCI-H3122, 72 h) by half (GI50). Moreover, the IC50 on ALK WT is 0.0078 µM.

On to `CNCC(C)(C)c1cc(OC)c(Nc2ncc(Cl)c(Nc3ccccc3S(=O)(=O)C(C)C)n2)cc1C` [Example 60, 5-chloro-N4-(2-(isopropylsulfonyl)phenyl)-N2-(2-methoxy-5-methyl-4-(2-methyl-1-(methylamino)propane-2-yl)phenyl)pyrimidine-2,4-diamine], for which the GI50 in the data set with H3122 cells (Homo sapiens, NCI-H3122, 72 h) turned out to be 0.041 µM. The IC50 came to 0.019 µM in the data set on Ba/F3 EML4-ALK WT cells (Ba/F3 EML4-ALK) and 0.0015 µM at ALK WT.

Turning to `COc1cc(C(C)(C)NC=O)c(C)cc1Nc1ncc(Cl)c(Nc2ccccc2S(=O)(=O)C(C)C)n1` [Example 61, N-(2-(4-((5-chloro-4-((2-(isopropylsulfonyl)phenyl)amino)pyrimidine-2-yl)amino)-5-methoxy-2-methylphenyl)propane-2-yl)formamide], the GI50 in the data set on H3122 cells (Homo sapiens, NCI-H3122, 72 h) was 0.052 µM. Besides, in the data set with Ba/F3 EML4-ALK WT cells (Ba/F3 EML4-ALK), the IC50 was 0.024 µM.

Turning to `COc1cc(CCNC=O)c(C)cc1Nc1ncc(Cl)c(Nc2ccccc2S(=O)(=O)C(C)C)n1` [Example 62, N-(4-((5-chloro-4-((2-(isopropylsulfonyl)phenyl)amino)pyrimidine-2-yl)amino)-5-methoxy-2-methylphenethyl)formamide], the 50% growth inhibitory concentration (GI50) in the data set with H3122 cells (Homo sapiens, NCI-H3122, 72 h) was found to be 0.068 µM. The IC50 at ALK WT stood at 0.004 µM.

The compound `CNCCc1cc(OC)c(Nc2ncc(Cl)c(Nc3ccccc3S(=O)(=O)C(C)C)n2)cc1C` [Example 63, 5-chloro-N4-(2-(isopropylsulfonyl)phenyl)-N2-(2-methoxy-5-methyl-4-(2-(methylamino)ethyl)phenyl)pyrimidine-2,4-diamine] showed a GI50 in the data set on H3122 cells (Homo sapiens, NCI-H3122, 72 h) of 0.02 µM. Further, the IC50 at ALK WT turned out to be 0.0015 µM.

`CNC(C)(C)c1cc(OC)c(Nc2ncc(Cl)c(Nc3ccccc3S(=O)(=O)C(C)C)n2)cc1C` [Example 64, 5-chloro-N4-(2-(isopropylsulfonyl)phenyl)-N2-(2-methoxy-5-methyl-4-(2-(methylamino)propane-2-yl)phenyl)pyrimidine-2,4-diamine] had a 50% growth inhibitory concentration (GI50) with H3122 cells (Homo sapiens, NCI-H3122, 72 h) of 0.029 µM. Also, the values for the IC50 in the data set with Ba/F3 EML4-ALK WT cells (Ba/F3 EML4-ALK) and at ALK WT were 0.015 µM and 0.0012 µM, respectively.

`COc1cc(C(C)(C)CN(C)C)c(C)cc1Nc1ncc(Cl)c(Nc2ccccc2S(=O)(=O)C(C)C)n1` [Example 65, 5-chloro-N2-(4-(1-(dimethylamino)-2-methylpropane-2-yl)-2-methoxy-5-methylphenyl)-N4-(2-(isopropylsulfonyl)phenyl)pyrimidine-2,4-diamine] showed a GI50 in the data set on H3122 cells (Homo sapiens, NCI-H3122, 72 h) of 0.026 µM. The IC50 with Ba/F3 EML4-ALK WT cells (Ba/F3 EML4-ALK) was determined as 0.014 µM; on ALK WT, 0.0022 µM.

For `COc1cc(C(C)(C)N(C)C)c(C)cc1Nc1ncc(Cl)c(Nc2ccccc2S(=O)(=O)C(C)C)n1` [Example 66, 5-chloro-N2-(4-(2-(dimethylamino)propane-2-yl)-2-methoxy-5-methylphenyl)-N4-(2-(isopropylsulfonyl)phenyl)pyrimidine-2,4-diamine], in the data set with H3122 cells (Homo sapiens, NCI-H3122, 72 h), the 50% growth inhibitory concentration (GI50) turned out to be 0.035 µM. For the same compound, at ALK WT, the IC50 came out at 0.0028 µM.

In turn, `COc1cc(-c2ccccc2)c(CCN)cc1Nc1ncc(Cl)c(Nc2ccccc2S(=O)(=O)C(C)C)n1` [Example 67] showed a GI50 with H3122 cells (Homo sapiens, NCI-H3122, 72 h) of 0.23 µM. For the same compound, the IC50 in the data set on Ba/F3 EML4-ALK WT cells (Ba/F3 EML4-ALK) came out at 0.11 µM.

Turning to `COc1cc(CN(C)C)c(C)cc1Nc1ncc(Cl)c(Nc2ccccc2S(=O)(=O)C(C)C)n1` [Example 70, 5-chloro-N2-(4-((dimethylamino)methyl)-2-methoxy-5-methylphenyl)-N4-(2-(isopropylsulfonyl)phenyl)pyrimidine-2,4-diamine], the concentration for 50% growth inhibition (GI50) in the data set with H3122 cells (Homo sapiens, NCI-H3122, 72 h) came to 0.037 µM. For the same compound, the IC50 with Ba/F3 EML4-ALK WT cells (Ba/F3 EML4-ALK) was determined as 0.021 µM.

`COc1cc(CNC=O)c(C)cc1Nc1ncc(Cl)c(Nc2ccccc2S(=O)(=O)C(C)C)n1` [Example 71, N-(4-((5-chloro-4-((2-(isopropylsulfonyl)phenyl)amino)pyrimidine-2-yl)amino)-5-methoxy-2-methylbenzyl)formamide]: in the data set with Ba/F3 EML4-ALK WT cells (Ba/F3 EML4-ALK), the IC50 stood at 0.015 µM.

In the case of `CNCc1cc(OC)c(Nc2ncc(Cl)c(Nc3ccccc3S(=O)(=O)C(C)C)n2)cc1C` [Example 72, 5-chloro-N4-(2-(isopropylsulfonyl)phenyl)-N2-(2-methoxy-5-methyl-4-((methylamino)methyl)phenyl)pyrimidine-2,4-diamine], the 50% growth inhibitory concentration (GI50) in the data set with H3122 cells (Homo sapiens, NCI-H3122, 72 h) was found to be 0.025 µM. For the same compound, the IC50 stood at 0.015 µM in the data set with Ba/F3 EML4-ALK WT cells (Ba/F3 EML4-ALK) and 0.00174 µM on ALK WT.

Take `C=C(C)c1cc(OCC)c(Nc2ncc(Cl)c(Nc3ccccc3S(=O)(=O)C(C)C)n2)cc1CCN` [Example 74, N2-(5-(2-aminoethyl)-2-ethoxy-4-(prop-1-ene-2-yl)phenyl)-5-chloro-N4-(2-(isopropylsulfonyl)phenyl)pyrimidine-2,4-diamine]: halving of growth in the data set with H3122 cells (Homo sapiens, NCI-H3122, 72 h) (GI50) required 0.77 µM. In addition, the IC50 in the data set on Ba/F3 EML4-ALK WT cells (Ba/F3 EML4-ALK) is 0.36 µM.

In the data set with H3122 cells (Homo sapiens, NCI-H3122, 72 h), `C=C(C)c1cc(OC)c(Nc2ncc(Cl)c(Nc3ccccc3S(=O)(=O)C(C)C)n2)cc1CCN` [Example 75, N2-(5-(2-aminoethyl)-2-methoxy-4-(prop-1-ene-2-yl)phenyl)-5-chloro-N4-(2-(isopropylsulfonyl)phenyl)pyrimidine-2,4-diamine] yielded a GI50 of 0.23 µM. The IC50 in the data set with Ba/F3 EML4-ALK WT cells (Ba/F3 EML4-ALK) is 0.11 µM.
